Experiments:
Type in all cases: biochemical
[1] = biological target: T1, ALDH3A1 (Homo sapiens, UniProt P30838); experiment: Kinetic characteristics (Michaelis-Menten Km, Kcat) with ALDH3A1
T1 construct: purchased
T1 sequence (P30838 1-453): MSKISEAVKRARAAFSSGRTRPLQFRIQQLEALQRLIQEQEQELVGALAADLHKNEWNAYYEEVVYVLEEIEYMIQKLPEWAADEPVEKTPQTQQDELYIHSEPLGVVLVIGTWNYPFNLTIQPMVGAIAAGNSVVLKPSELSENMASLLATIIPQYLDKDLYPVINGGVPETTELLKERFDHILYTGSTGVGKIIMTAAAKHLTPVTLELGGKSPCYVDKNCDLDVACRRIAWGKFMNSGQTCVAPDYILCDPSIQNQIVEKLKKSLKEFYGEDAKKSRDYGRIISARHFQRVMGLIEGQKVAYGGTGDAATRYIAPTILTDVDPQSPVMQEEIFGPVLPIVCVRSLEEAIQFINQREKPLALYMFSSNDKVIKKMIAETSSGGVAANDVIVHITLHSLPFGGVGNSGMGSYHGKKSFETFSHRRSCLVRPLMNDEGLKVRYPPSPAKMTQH
Protocol: (§1) Human recombinant ALDH1A1/1A3/3A1 was purchased, and 100 mM of KCL, 2 mM of DTT, 1 mM of NAD(P), 10-100 nM of each ALDH, and 10-80 μM of each compound were mixed in Tris buffer (100 mM, pH 7.5), reacted for 30 minutes at 37° C., an equal amount of acetonitrile added, and the reaction stopped. The reaction solution was analyzed by UPLC/MS/MS (Waters). The UPCL chromatogram was carried out over five minutes at a flow rate of 800 μL/min by a linear gradient from 5% acetonitrile 0.01 M ammonium formate/water to 95% acetonitrile 0.01 M ammonium formate/water. An aldehyde-form and carboxylic acid-form probe were detected by the absorbance at a wavelength of 504 nm, and m/z of the MS spectrum at each peak was confirmed to agree with the expected m/z.
(§2) For the reaction, 100 mM of KCL, 2 mM of DTT, 1 mM of NAD(P), and five to six concentrations within the range of 10-100 nM of each ALDH and 0.1-80 μM of each probe were selected, mixed in Tris buffer (100 mM, pH 7.5), and reacted for five minutes at 37° C.; an equal amount of acetonitrile was added, and the reaction was stopped. Detection of the aldehyde-form/carboxylic acid-form probes was carried out using the same method as described above by UPLC/MS/MS. Km and Kcat were calculated by fitting the reaction rate at each probe concentration obtained to the Michaelis-Menten equation. A Kaleida Graph ver. 4.1 (Hulinks, Inc.) was used in fitting.
The Kcat ratio (Kcat of ALDH3A1/Kcat of ALDH1A1) was calculated for probe 1, probe 3, and probe 5 as an indicator of ALDH1A1/ALDH3A1 specificity because the probe reaction rate at the actual probe use concentration is believed to be close to Vmax since Km is relatively small (Table 5).

[2] = biological target: T2, ALDH1A3 (Homo sapiens, UniProt P47895); experiment: Reactivity of probes to recombinant ALDH1A3 (UPLC/MS/MS); conditions: 10-100 nM ALDH, 10-80 μM compound, Tris buffer pH 7.5, 30 minutes at 37° C., ◯/X not defined by a legend
T2 construct: purchased
T2 sequence (P47895 1-512): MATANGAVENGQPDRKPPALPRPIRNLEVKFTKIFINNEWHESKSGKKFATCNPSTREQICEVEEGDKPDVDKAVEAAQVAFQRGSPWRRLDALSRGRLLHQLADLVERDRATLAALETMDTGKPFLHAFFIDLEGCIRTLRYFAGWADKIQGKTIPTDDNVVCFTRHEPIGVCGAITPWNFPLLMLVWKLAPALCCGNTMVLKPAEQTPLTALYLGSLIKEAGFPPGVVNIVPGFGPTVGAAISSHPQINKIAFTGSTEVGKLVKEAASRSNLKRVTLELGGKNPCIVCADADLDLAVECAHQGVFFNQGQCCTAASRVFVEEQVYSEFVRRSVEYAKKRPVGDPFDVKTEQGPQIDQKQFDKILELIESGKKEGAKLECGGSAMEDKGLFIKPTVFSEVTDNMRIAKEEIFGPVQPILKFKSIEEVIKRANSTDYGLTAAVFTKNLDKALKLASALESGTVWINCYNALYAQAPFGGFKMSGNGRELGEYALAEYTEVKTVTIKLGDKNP
Protocol: Human recombinant ALDH1A1/1A3/3A1 was purchased, and 100 mM of KCL, 2 mM of DTT, 1 mM of NAD(P), 10-100 nM of each ALDH, and 10-80 μM of each compound were mixed in Tris buffer (100 mM, pH 7.5), reacted for 30 minutes at 37° C., an equal amount of acetonitrile added, and the reaction stopped. The reaction solution was analyzed by UPLC/MS/MS (Waters). The UPCL chromatogram was carried out over five minutes at a flow rate of 800 μL/min by a linear gradient from 5% acetonitrile 0.01 M ammonium formate/water to 95% acetonitrile 0.01 M ammonium formate/water.

[3] = biological target: T2, ALDH1A3; experiment: Kinetic characteristics (Michaelis-Menten Km, Kcat) with ALDH1A3; conditions: five minutes at 37° C., Tris buffer pH 7.5
Protocol: as §1, §2

[4] = biological target: T3, ALDH1A1 (Homo sapiens, UniProt P00352); experiment: Kinetic characteristics (Michaelis-Menten Km, Kcat) with ALDH1A1; conditions: five minutes at 37° C., Tris buffer pH 7.5
T3 construct: purchased
T3 sequence (P00352 1-501): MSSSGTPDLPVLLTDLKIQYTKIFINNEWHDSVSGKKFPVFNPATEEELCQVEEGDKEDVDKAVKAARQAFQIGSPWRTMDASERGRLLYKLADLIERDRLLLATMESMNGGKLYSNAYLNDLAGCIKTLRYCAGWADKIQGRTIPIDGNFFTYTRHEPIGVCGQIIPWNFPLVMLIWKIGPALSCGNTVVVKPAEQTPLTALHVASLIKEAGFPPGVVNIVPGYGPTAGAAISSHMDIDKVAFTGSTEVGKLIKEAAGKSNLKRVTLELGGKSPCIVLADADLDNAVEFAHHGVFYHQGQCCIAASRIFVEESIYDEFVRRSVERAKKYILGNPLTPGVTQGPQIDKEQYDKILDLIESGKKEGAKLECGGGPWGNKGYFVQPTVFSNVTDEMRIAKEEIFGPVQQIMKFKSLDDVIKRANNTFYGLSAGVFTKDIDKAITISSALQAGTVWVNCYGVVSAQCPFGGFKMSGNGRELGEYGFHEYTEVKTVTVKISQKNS
Protocol: as §1, §2

[5] = five minutes at 37° C., Tris buffer pH 7.5

N-(4-formylbenzyl)-3-(1,3-dimethyl-4,4-difluoro-4-bora-3a,4a-diaza-s-indacen-5-yl)-propionamide [Probe 1]
Kcat ALDH3A1 [1, 5]: 1.12 ± 0.08 s⁻¹
Km [1, 5]: 58.9 ± 7.6 µM
Kcat ratio (Kcat of ALDH3A1/Kcat of ALDH1A1) ([1]; indicator of ALDH1A1/ALDH3A1 specificity): 0.8
Reactivity to ALDH1A3 [2]: ◯
Reactivity to ALDH1A3 ([2]; listed as Compound 1): reacted with all three of the isoforms tested
Kcat ALDH1A3 [3]: 0.029 ± 0.0015 s⁻¹
Km [3]: 1.64 ± 0.49 µM
Kcat ALDH1A1 [4]: 1.36 ± 0.045 s⁻¹
Km [4]: < 0.2 µM
